The test system of assay [1] is Zymoseptoria tritici. In words: Microtiter plate (MTP) fungal growth assay, optical density, Wadley analysis. The format is cell-based. To be noted: single active ingredient, OD 590 nm after 5 days at 19° C.
Assay [2] has as its system Phytophthora infestans. In words: microbe, parasite or virus in culture. It is filed as cell-based.
Assay [3] has as its system Venturia inaequalis. In words: Apple scab control on apple leaves (incidence), Colby analysis. To be noted: 27 days after application.
Method: Here, efficacy or percent inhibition is determined in %.
Efficacy of the fungicidal compositions is evaluated with reference to a scale of 0 to 100% in comparison with untreated control plots. 0 means no control and 100 means complete control of the target disease.
The experiments were conducted by applying commercially available formulations of Fluazinam and other mixture partners, alone or with their tank-mixed compositions. The compositions were diluted with water.
Each formulation with active ingredient is diluted with water and biological efficacy trials on target fungi are conducted.
[4] abbreviates: Fluazinam 350 g/ha, Fluxapyroxad 75 g/ha, mixture 350 + 75 g/ha.

In brackets after ≈: the same amount, converted by molar mass.

The EC50 is the concentration that produces a half-maximal response.

In assay [1], `Cc1ccc(C(=O)OCc2ccc(Oc3ccccc3)cc2)c(N)n1` [Aminopyrifen] gave an EC50 observed of 0.2220 mg/L (≈ 0.664 µM).
Consider `COc1ccnc(C(=O)N[C@@H](C)C(=O)O[C@@H](C)C(c2ccc(F)cc2)c2ccc(F)cc2)c1OC(C)=O` [Florylpicoxamid], for which, in assay [1], the EC50 observed is 0.0022 mg/L (≈ 0.00429 µM).
Turning to `O=[N+]([O-])c1cc(C(F)(F)F)c(Cl)c([N+](=O)[O-])c1Nc1ncc(C(F)(F)F)cc1Cl` [Fluazinam], the EC50 in assay [1] (Zymoseptoria tritici, 120 h, read-out: EC50 observed) came to 0.257 mg/L (≈ 0.552 µM); in assay [2] (Phytophthora infestans, 120 h, read-out: EC50 observed) it was 0.528 mg/L (≈ 1.14 µM). Moreover, the “Observed % control (O)” value in assay [3] (setting [4]) is recorded as 30.50%.
`Cn1cc(C(=O)Nc2ccccc2Oc2ccc(C(F)(F)F)cc2Cl)c(C(F)F)n1` [Flubeneteram] gave an EC50 observed in assay [1] of 0.1221 mg/L (≈ 0.274 µM).
As for `Cn1cc(C(=O)Nc2ccccc2-c2cc(F)c(F)c(F)c2)c(C(F)F)n1` [Fluxapyroxad], the “Observed % control (O)” value was 27.50% in assay [3] (setting [4]) and 43.80% in assay [3] (Fluxapyroxad 90 g/ha, mixture 350 + 90 g/ha).
With `Cn1nnnc1/C(=N\OCc1cccc(NC(=O)OC(C)(C)C)n1)c1ccccc1` [Picarbutrazox], the EC50 observed in assay [2] (single active ingredient, OD 590 nm after 5 days at 19° C.) turned out to be 0.0026 mg/L (≈ 0.00635 µM).

Values taken from US20250302040A1, “FUNGICIDAL COMBINATIONS OF FLUAZINAM AND USES THEREOF” (priority 2022, published 2025).
